Data as given in ChEMBL document CHEMBL1143045, “Tricyclic isoxazolines: identification of R226161 as a potential new antidepressant that combines potent serotonin reuptake inhibition and alpha2-adrenoceptor antagonism” (Bioorg Med Chem, 2007).
The source made the active and inactive calls. No cut-off for these calls is given here.

What was measured:
[1] = target: T1, Alpha-2B adrenergic receptor (Homo sapiens, UniProt P18089); assay: Displacement of [3H]rawolscine from human cloned adrenergic alpha-2B receptor transfected in CHO cells; format: cell-based
T1 sequence (P18089 whole entry): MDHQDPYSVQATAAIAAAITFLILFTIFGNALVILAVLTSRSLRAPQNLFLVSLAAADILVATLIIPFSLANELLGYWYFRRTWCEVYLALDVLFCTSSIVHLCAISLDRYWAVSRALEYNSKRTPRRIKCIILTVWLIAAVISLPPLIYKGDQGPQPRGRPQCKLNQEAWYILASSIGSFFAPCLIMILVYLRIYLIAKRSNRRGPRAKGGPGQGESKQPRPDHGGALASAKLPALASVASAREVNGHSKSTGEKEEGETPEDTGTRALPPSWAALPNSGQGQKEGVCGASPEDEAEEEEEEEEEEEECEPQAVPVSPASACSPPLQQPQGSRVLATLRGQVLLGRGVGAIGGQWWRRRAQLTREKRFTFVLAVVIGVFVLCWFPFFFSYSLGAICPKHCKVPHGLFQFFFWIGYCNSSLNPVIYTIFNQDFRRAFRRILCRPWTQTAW

[2] = target: T2, Alpha-2C adrenergic receptor (Homo sapiens, UniProt P18825); assay: Displacement of [3H]rawolscine from human cloned adrenergic Alpha-2C receptor transfected in CHO cells; format: cell-based
T2 sequence (P18825 whole entry): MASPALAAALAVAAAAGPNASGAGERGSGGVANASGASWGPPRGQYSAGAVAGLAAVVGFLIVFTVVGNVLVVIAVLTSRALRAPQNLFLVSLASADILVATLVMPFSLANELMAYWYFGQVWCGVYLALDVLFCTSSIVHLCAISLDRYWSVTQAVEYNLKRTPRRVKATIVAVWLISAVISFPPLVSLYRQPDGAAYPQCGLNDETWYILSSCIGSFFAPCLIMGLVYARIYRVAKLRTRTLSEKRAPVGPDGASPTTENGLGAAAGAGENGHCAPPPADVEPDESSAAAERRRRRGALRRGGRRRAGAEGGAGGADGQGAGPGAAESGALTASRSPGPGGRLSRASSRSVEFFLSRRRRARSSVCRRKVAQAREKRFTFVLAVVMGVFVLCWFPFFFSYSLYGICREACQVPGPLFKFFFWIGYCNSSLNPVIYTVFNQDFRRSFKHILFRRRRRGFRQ

[3] = target: Sodium-dependent serotonin transporter (Homo sapiens, UniProt P31645); assay: Displacement of [3H]paroxetine from human cloned 5HTT receptor transfected in CHO cells; format: cell-based
[4] = target: T3, Adrenergic receptor alpha-2 (Rattus norvegicus) (UniProt P22086+P19328+P22909); assay: Reversal of medetomidine-induced loss of righting reflex in sc dosed Wistar rat after 1hr; format: functional, organism-based
[5] = target: T3, Adrenergic receptor alpha-2 (Rattus norvegicus); assay: Reversal of medetomidine-induced loss of righting reflex in po dosed Wistar rat after 1hr; format: functional, organism-based
[6] = target: Sodium-dependent serotonin transporter (Rattus norvegicus) (UniProt P31652); assay: Antagonism of p-chloroamphetamine-induced excitation in sc dosed Wistar rat after 1 hr; format: functional, organism-based
[7] = target: Sodium-dependent serotonin transporter (Rattus norvegicus) (UniProt P31652); assay: Antagonism of p-chloroamphetamine-induced excitation in po dosed Wistar rat after 1 hr; format: functional, organism-based
[8] = target: Sodium-dependent serotonin transporter (Rattus norvegicus) (UniProt P31652); assay: Antagonism of p-chloroamphetamine-induced 5HT depletion in sc dosed Wistar rat prefrontal cortex after 1 hr; format: functional, organism-based
[9] = target: Sodium-dependent serotonin transporter (Rattus norvegicus) (UniProt P31652); assay: Antagonism of p-chloroamphetamine-induced 5HT depletion in po dosed Wistar rat prefrontal cortex after 1 hr; format: functional, organism-based
[10] = target: T4, Alpha-2A adrenergic receptor (Homo sapiens, UniProt P08913); assay: Displacement of [3H]rawolscine from human cloned adrenergic alpha2A receptor transfected in CHO cells; format: cell-based
T4 sequence (P08913 whole entry): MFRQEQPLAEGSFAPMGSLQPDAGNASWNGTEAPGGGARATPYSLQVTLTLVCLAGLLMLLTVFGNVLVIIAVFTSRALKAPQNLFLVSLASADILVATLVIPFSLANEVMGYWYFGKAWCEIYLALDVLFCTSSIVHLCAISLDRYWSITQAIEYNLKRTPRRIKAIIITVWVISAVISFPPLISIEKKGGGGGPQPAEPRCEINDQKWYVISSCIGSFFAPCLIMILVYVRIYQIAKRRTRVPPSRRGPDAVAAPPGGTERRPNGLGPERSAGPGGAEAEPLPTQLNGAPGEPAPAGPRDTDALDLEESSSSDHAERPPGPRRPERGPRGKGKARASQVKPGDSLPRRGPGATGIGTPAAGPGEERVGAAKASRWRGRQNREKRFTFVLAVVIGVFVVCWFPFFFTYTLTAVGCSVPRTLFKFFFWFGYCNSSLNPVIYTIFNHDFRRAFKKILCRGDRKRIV

[11] = target: T5, Alpha-1A adrenergic receptor (Homo sapiens, UniProt P35348); assay: Displacement of [3H]prazosin from human cloned alpha-1A receptor
T5 sequence (P35348 whole entry): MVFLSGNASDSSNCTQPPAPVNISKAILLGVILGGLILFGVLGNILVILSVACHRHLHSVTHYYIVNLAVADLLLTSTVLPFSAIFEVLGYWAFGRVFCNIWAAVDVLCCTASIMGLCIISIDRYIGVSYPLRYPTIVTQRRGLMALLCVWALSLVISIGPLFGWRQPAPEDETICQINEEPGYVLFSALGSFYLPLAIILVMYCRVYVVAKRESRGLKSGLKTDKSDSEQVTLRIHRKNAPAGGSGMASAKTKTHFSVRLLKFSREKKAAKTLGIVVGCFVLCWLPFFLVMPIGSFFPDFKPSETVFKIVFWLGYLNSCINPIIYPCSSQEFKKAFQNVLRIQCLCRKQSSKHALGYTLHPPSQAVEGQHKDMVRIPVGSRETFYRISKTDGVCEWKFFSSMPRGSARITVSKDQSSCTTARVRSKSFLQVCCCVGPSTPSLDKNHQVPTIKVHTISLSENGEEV

Histamine H1 receptor = Histamine H1 receptor (Homo sapiens, UniProt P35367); assay: Displacement of [3H]pyrilamine from human cloned histamine H1 receptor
D(3) dopamine receptor = D(3) dopamine receptor (Homo sapiens, UniProt P35462); assay: Displacement of [125I]iodosulpiride from human cloned dopamine D3 receptor
Substance-P receptor = Substance-P receptor (Homo sapiens, UniProt P25103); assay: Displacement of [3H]substance P from human cloned NK1 receptor
[12] = target: Sodium-dependent dopamine transporter (Rattus norvegicus, UniProt P23977); assay: Displacement of [3H]WIN-35428 from rat DAT
[13] = target: Norepinephrine transporter (Rattus norvegicus, UniProt Q9WTR4); assay: Displacement of [3H]nisoxetine from rat NET
[14] = target: T6, Alpha-2B adrenergic receptor (Homo sapiens) (UniProt P18089); assay: Agonist activity at human adrenergic alpha-2B receptor transfected in CHO cells by [35S]GTPgammaS binding assay; format: functional, cell-based
T6 sequence (whole entry): T1 sequence (P18089 whole entry)

[15] = target: T7, Alpha-2C adrenergic receptor (Homo sapiens) (UniProt P18825); assay: Agonist activity at human adrenergic Alpha-2C receptor transfected in CHO cells by [35S]GTPgammaS binding assay; format: functional, cell-based
T7 sequence (whole entry): T2 sequence (P18825 whole entry)

[16] = target: T6, Alpha-2B adrenergic receptor (Homo sapiens); assay: Antagonist activity at human alpha-2B receptor transfected in CHO cells by [35S]GTPgammaS binding assay; format: functional, cell-based
[17] = target: T7, Alpha-2C adrenergic receptor (Homo sapiens); assay: Antagonist activity at human alpha-2C receptor transfected in CHO cells by [35S]GTPgammaS binding assay; format: functional, cell-based
[18] = target: T3, Adrenergic receptor alpha-2 (Rattus norvegicus); assay: Receptor occupancy ex vivo by displacement of [3H]idazoxan binding from alpha-2 adrenoceptor in sc dosed Wistar rat entorhinal cortex after 1 hr; format: functional, organism-based
[19] = target: T3, Adrenergic receptor alpha-2 (Rattus norvegicus); assay: Receptor occupancy ex vivo by displacement of [3H]idazoxan binding from alpha-2 adrenoceptor in po dosed Wistar rat entorhinal cortex after 1 hr; format: functional, organism-based
[20] = target: T3, Adrenergic receptor alpha-2 (Rattus norvegicus); assay: Reversal of medetomidine-induced loss of righting reflex in sc dosed Wistar rat after 0.5 hrs; format: functional, organism-based
[21] = target: T3, Adrenergic receptor alpha-2 (Rattus norvegicus); assay: Reversal of medetomidine-induced loss of righting reflex in sc dosed Wistar rat after 1 hr; format: functional, organism-based
[22] = target: T3, Adrenergic receptor alpha-2 (Rattus norvegicus); assay: Reversal of medetomidine-induced loss of righting reflex in sc dosed Wistar rat after 2 hrs; format: functional, organism-based
[23] = target: T3, Adrenergic receptor alpha-2 (Rattus norvegicus); assay: Reversal of medetomidine-induced loss of righting reflex in sc dosed Wistar rat after 4 hrs; format: functional, organism-based
[24] = target: T3, Adrenergic receptor alpha-2 (Rattus norvegicus); assay: Reversal of medetomidine-induced loss of righting reflex in sc dosed Wistar rat after 8 hrs; format: functional, organism-based
[25] = target: T3, Adrenergic receptor alpha-2 (Rattus norvegicus); assay: Reversal of medetomidine-induced loss of righting reflex in sc dosed Wistar rat after 16 hrs; format: functional, organism-based
[26] = target: T3, Adrenergic receptor alpha-2 (Rattus norvegicus); assay: Reversal of medetomidine-induced loss of righting reflex in sc dosed Wistar rat after 32 hrs; format: functional, organism-based
[27] = target: T3, Adrenergic receptor alpha-2 (Rattus norvegicus); assay: Reversal of medetomidine-induced loss of righting reflex in po dosed Wistar rat after 0.5 hrs; format: functional, organism-based
[28] = target: T3, Adrenergic receptor alpha-2 (Rattus norvegicus); assay: Reversal of medetomidine-induced loss of righting reflex in po dosed Wistar rat after 1 hr; format: functional, organism-based
[29] = target: T3, Adrenergic receptor alpha-2 (Rattus norvegicus); assay: Reversal of medetomidine-induced loss of righting reflex in po dosed Wistar rat after 2 hrs; format: functional, organism-based
[30] = target: T3, Adrenergic receptor alpha-2 (Rattus norvegicus); assay: Reversal of medetomidine-induced loss of righting reflex in po dosed Wistar rat after 4 hrs; format: functional, organism-based
[31] = target: T3, Adrenergic receptor alpha-2 (Rattus norvegicus); assay: Reversal of medetomidine-induced loss of righting reflex in po dosed Wistar rat after 8 hrs; format: functional, organism-based
[32] = target: T3, Adrenergic receptor alpha-2 (Rattus norvegicus); assay: Reversal of medetomidine-induced loss of righting reflex in po dosed Wistar rat after 16 hrs; format: functional, organism-based

Sequence of Sodium-dependent serotonin transporter (Rattus norvegicus) (P31652 whole entry): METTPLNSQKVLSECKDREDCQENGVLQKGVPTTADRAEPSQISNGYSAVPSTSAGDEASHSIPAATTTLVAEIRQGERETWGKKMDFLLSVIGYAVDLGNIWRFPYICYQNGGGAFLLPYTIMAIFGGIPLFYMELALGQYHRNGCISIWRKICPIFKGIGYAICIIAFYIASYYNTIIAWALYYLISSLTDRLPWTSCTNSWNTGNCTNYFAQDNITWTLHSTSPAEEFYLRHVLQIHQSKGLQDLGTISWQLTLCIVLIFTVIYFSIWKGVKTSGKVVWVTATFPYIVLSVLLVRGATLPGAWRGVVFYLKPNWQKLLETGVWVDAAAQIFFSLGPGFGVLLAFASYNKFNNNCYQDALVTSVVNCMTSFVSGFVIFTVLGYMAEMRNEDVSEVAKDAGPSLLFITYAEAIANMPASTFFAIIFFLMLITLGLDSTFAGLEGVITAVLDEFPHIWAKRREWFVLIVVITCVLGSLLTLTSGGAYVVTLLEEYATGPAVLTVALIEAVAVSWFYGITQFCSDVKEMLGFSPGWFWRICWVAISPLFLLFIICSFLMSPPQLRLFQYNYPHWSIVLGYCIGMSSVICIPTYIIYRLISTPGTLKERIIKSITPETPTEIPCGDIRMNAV
Sequence of Sodium-dependent serotonin transporter (P31645 whole entry): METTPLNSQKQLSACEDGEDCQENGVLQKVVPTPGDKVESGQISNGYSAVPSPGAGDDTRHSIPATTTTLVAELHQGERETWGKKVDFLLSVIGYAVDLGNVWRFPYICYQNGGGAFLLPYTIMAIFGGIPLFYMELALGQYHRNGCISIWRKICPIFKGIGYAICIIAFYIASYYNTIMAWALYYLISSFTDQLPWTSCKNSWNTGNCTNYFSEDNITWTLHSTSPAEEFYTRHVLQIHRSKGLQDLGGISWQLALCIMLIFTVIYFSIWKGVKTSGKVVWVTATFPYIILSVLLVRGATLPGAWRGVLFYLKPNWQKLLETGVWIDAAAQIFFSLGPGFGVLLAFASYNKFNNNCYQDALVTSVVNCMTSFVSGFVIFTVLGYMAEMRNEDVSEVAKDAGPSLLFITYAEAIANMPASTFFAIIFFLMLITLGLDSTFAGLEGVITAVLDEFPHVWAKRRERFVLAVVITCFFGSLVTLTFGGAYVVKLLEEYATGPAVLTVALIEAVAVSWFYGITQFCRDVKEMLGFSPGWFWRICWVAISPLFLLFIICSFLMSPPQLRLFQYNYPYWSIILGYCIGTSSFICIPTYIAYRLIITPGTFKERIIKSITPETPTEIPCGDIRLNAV
Sequence of D(3) dopamine receptor (P35462 whole entry): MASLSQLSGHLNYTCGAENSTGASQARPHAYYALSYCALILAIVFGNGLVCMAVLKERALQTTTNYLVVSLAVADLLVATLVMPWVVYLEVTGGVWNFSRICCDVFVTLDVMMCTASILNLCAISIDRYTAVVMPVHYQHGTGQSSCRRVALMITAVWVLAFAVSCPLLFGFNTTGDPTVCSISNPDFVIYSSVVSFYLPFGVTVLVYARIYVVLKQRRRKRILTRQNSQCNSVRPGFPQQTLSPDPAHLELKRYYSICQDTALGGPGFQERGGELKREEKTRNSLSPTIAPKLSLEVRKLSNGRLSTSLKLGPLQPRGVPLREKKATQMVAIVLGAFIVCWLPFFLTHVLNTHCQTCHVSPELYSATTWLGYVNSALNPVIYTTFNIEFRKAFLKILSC
Sequence of Sodium-dependent dopamine transporter (P23977 whole entry): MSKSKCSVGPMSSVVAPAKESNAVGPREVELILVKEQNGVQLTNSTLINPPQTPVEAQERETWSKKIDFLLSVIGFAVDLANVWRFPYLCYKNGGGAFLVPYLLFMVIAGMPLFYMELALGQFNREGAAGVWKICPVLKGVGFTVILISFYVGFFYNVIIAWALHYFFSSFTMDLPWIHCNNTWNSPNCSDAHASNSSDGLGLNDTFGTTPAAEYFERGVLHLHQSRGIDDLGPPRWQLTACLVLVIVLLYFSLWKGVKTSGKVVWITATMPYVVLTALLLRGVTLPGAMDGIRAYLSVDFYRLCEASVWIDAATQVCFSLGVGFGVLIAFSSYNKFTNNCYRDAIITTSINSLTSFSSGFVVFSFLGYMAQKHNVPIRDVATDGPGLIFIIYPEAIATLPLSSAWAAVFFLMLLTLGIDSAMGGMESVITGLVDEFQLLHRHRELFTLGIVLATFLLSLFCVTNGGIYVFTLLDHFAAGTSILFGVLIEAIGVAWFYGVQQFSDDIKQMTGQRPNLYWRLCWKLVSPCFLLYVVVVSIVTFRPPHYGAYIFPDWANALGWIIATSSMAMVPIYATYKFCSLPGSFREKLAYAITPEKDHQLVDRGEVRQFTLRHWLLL
Sequence of Histamine H1 receptor (P35367 whole entry): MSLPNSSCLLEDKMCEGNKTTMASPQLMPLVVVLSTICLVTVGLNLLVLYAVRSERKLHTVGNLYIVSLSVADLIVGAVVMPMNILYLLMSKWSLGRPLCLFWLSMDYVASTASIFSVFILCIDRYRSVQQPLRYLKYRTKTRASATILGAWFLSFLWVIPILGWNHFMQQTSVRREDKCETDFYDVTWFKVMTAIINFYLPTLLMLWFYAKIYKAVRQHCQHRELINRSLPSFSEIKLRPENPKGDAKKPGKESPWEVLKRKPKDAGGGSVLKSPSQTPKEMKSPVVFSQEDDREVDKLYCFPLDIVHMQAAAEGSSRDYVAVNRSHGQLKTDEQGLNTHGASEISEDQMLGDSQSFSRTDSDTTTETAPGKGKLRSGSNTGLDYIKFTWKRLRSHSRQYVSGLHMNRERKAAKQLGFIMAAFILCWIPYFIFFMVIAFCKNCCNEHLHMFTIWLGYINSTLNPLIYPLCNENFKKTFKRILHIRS
Sequence of Norepinephrine transporter (Q9WTR4 whole entry): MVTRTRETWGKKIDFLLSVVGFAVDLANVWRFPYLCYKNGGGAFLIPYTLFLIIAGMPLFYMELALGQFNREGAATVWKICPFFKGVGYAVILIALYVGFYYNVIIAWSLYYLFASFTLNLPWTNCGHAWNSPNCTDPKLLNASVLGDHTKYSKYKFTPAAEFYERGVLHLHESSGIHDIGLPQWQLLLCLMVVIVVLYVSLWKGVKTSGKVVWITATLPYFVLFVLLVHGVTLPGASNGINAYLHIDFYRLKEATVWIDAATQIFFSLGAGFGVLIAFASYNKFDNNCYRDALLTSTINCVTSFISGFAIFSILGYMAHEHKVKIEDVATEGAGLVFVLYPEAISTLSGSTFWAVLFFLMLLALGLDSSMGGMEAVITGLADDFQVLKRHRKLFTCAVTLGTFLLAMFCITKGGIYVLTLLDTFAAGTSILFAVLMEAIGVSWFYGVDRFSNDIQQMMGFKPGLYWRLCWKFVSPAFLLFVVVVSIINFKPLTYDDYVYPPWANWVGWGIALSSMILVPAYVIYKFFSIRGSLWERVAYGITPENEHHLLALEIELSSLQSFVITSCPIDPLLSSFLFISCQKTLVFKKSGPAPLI
Sequence of Substance-P receptor (P25103 whole entry): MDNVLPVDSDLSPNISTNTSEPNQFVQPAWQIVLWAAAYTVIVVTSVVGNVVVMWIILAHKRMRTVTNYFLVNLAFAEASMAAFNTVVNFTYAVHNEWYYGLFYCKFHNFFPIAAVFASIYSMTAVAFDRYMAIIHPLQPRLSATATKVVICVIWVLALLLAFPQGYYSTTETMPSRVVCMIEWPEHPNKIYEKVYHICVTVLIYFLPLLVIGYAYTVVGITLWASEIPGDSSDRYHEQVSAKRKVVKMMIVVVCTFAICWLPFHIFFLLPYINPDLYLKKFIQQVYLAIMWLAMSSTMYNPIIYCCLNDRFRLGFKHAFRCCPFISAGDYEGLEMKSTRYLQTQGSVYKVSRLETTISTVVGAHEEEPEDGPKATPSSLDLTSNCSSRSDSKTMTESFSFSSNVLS

COc1cc2c(cc1OC)C1=NOC(CN3CCN(C/C(C)=C/c4ccccc4)CC3)C1CN2 (single isomer, unassigned; (+)) [listing 1 of 2 here]
Ki [1]: 0.0045 µM | Ki [2]: 0.00093 µM | Ki [3]: 0.079 µM

COc1cc2c(cc1OC)C1=NOC(CN3CCN(C/C(C)=C/c4ccccc4)CC3)C1CN2 (single isomer, unassigned; (+)) [listing 2 of 2 here]
ED50 [4]: 0.08 mg/kg | ED50 [5]: 0.63 mg/kg | ED50 [6]: > 10 mg/kg | ED50 [7]: > 10 mg/kg | ED50 [8]: 4.1 mg/kg

COc1cc2c(cc1OC)C1=NOC(CN3CCN(C/C=C/c4ccc(F)cc4)CC3)C1CO2 (single isomer, unassigned; (+))
ED50 [4]: 3.1 mg/kg | ED50 [5]: 3.5 mg/kg | ED50 [6]: 0.05 mg/kg | ED50 [7]: 0.32 mg/kg | ED50 [8]: 0.03 mg/kg | ED50 [9]: 0.05 mg/kg

COc1cc2c(cc1OC)C1=NOC(CN3CCN(C/C(C)=C/c4ccccc4)CC3)C1CN2 (single isomer, unassigned; (-)) [listing 1 of 2 here]
Ki [1]: 0.026 µM | Ki [2]: 0.0083 µM | Ki [3]: 0.024 µM

COc1cc2c(cc1OC)C1=NOC(CN3CCN(C/C(C)=C/c4ccccc4)CC3)C1CN2 (single isomer, unassigned; (-)) [listing 2 of 2 here]
ED50 [4]: > 10 mg/kg | ED50 [5]: > 10 mg/kg | ED50 [6]: 0.32 mg/kg | ED50 [7]: 3.2 mg/kg | ED50 [8]: 0.81 mg/kg

COc1cc2c(cc1OC)C1=NO[C@@H](CN3CCN(C/C(C)=C/c4ccc(F)cc4)CC3)[C@@H]1CO2 (stereo in doubt; form 1) [listing 1 of 2 here]
Ki [10]: 0.0031 µM | Ki [1]: 0.0015 µM | Ki [2]: 0.00027 µM | Ki [11]: 0.125 µM | Ki (Histamine H1 receptor): 0.074 µM | Ki (D(3) dopamine receptor): 0.375 µM | Ki (Substance-P receptor): 0.31 µM | Ki [12]: 0.583 µM | Ki [13]: 0.07 µM

COc1cc2c(cc1OC)C1=NO[C@@H](CN3CCN(C/C(C)=C/c4ccc(F)cc4)CC3)[C@@H]1CO2 (stereo in doubt; form 1) [listing 2 of 2 here]
ED50 [4]: 2.7 mg/kg | ED50 [5]: 1.3 mg/kg | Activity [14]: inactive | Activity [15]: inactive | Kb [16]: 0.0014 µM | Kb [17]: 0.00091 µM | ED50 [18]: 2.6 mg/kg | ED50 [19]: 8.8 mg/kg | ED50 [20]: 1.2 mg/kg | ED50 [21]: 2.7 mg/kg | ED50 [22]: 4.1 mg/kg | ED50 [23]: 2.3 mg/kg | ED50 [24]: 4.7 mg/kg | ED50 [25]: 7.1 mg/kg | ED50 [26]: > 10 mg/kg | ED50 [27]: 1 mg/kg | ED50 [28]: 1.3 mg/kg | ED50 [29]: 2.7 mg/kg | ED50 [30]: 3.6 mg/kg | ED50 [31]: 9.3 mg/kg | ED50 [32]: 25 mg/kg

COc1cc2c(cc1OC)C1=NO[C@@H](CN3CCN(C/C(C)=C/c4ccc(F)cc4)CC3)[C@@H]1CO2 (stereo in doubt; form 2) [listing 1 of 2 here]
Ki [10]: 0.028 µM | Ki [1]: 0.021 µM | Ki [2]: 0.01 µM

COc1cc2c(cc1OC)C1=NO[C@@H](CN3CCN(C/C(C)=C/c4ccc(F)cc4)CC3)[C@@H]1CO2 (stereo in doubt; form 2) [listing 2 of 2 here]
ED50 [4]: 5 mg/kg
